“Also recorded” adds a separate entry of the source.
Assays:
human HCN1 = molecular target: T1, human HCN1 (Homo sapiens, UniProt O60741); assay: Two-electrode voltage clamp of Xenopus oocytes injected with human HCN1 cRNA; format: cell-based; conditions: for block of HCN1 currents: Cs+ 3 mM in ND-96
T1 construct: expressed in transfected cells; host or cells: Xenopus laevis oocytes injected with cRNA transcribed from pGEM HE-human HCN1
T1 sequence (O60741 1-890): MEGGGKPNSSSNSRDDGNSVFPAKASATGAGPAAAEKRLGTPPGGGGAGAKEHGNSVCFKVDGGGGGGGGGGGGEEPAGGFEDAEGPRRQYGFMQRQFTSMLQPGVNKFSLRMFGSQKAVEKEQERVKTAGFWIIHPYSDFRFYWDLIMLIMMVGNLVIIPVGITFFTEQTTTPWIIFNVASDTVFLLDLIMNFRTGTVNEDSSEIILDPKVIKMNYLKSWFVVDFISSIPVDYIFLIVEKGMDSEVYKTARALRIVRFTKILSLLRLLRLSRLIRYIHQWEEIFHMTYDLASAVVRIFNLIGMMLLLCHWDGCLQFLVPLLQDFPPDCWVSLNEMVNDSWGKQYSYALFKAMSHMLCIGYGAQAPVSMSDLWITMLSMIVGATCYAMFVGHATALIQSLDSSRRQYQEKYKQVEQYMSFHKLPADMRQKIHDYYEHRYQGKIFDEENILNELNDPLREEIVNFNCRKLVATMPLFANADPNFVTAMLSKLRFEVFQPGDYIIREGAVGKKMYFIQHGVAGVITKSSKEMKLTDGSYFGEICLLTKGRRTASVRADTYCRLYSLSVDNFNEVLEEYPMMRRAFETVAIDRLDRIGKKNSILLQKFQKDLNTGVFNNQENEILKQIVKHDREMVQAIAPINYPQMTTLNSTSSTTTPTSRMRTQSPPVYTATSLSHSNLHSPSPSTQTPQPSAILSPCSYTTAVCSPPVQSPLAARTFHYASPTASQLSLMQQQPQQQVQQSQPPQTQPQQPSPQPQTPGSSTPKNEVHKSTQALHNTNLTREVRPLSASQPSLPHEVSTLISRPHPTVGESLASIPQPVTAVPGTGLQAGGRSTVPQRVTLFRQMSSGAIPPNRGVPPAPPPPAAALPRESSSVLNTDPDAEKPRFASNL

human HCN3 = molecular target: T2, human HCN3 (Homo sapiens, UniProt Q9P1Z3); assay: Whole cell patch clamp of HEK293 cells stably expressing human HCN3; format: cell-based
T2 construct: expressed in transfected cells; host or cells: HEK293 cells stably transfected with hHCN3-pCDNA3.1 Zeo
T2 sequence (Q9P1Z3 1-774): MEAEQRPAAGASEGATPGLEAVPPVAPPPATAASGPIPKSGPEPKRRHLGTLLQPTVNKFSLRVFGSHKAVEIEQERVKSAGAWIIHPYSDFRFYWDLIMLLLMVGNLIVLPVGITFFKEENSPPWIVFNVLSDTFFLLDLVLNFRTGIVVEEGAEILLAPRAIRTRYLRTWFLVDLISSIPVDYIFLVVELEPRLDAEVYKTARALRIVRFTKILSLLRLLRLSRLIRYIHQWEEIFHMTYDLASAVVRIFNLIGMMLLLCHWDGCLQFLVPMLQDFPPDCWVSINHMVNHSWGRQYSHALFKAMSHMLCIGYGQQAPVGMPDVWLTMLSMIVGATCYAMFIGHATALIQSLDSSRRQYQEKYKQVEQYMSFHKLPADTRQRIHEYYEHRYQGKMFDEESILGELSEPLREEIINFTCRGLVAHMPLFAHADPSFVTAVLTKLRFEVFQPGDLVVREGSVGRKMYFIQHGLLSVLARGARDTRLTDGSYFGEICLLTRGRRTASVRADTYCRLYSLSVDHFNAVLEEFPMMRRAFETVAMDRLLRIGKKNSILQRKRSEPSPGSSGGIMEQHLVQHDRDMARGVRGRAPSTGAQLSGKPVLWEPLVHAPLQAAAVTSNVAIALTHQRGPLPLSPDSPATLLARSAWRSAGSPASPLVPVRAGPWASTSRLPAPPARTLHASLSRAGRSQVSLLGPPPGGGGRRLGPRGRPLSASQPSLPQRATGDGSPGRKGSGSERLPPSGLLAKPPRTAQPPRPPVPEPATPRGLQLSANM

Ih in large DRG neurons = assay: Whole cell patch clamp of Ih in acutely dissociated large L5 DRG neurons of SNL and control rats; format: cell-based, rat
Ih = conditions: applied intracellularly at 5 or 10 mM; cited from earlier work
[1] = system: spontaneous firing of injured primary afferents (Aβ and Aδ fibers); assay: In vitro single fiber recording of spontaneous (ectopic) discharges in excised dorsal root/DRG/spinal nerve preparations from SNL rats; parameters: species or system rat
SNL rats = assay: Tactile allodynia (von Frey 50% paw withdrawal threshold) in the SNL (Chung) neuropathic pain model; format: in vivo, rat; conditions: i.p.
Procedure: Preparation of SNL (spinal nerve ligation) model: All studies were conducted in keeping with the guidelines of the Institutional Animal Care Committees of the University of California, San Diego and RWJPRI. Male Harlan Sprague-Dawley rats, 100-150 g, were housed in cages with solid bottoms and sawdust bedding, with a 12/12 h reversed light cycle (lights on 2100-900), and allowed free access to food pellets and water. Animals were housed in groups of 2 after surgical interventions. A surgical neuropathy was created as follows, to create a model commonly referred to as the SNL, or spinal nerve ligation model, also commonly referred to as the Chung model. Under isoflurane/oxygen anesthesia, a dorsal midline incision was made from approximately L3-S2. Using a mixture of sharp and blunt dissection, the left L6/S1 posterior interarticular process was exposed and resected to permit adequate visualization of the L6 transverse process, which was gently removed. Careful teasing of the underlying fascia exposed the left L4 and L5 spinal nerves distal to their emergence from the intervertebral foramina. The nerves were gently separated, and the L5 and in some cases either the L4 (for in vitro electrophysiology recordings) or the L6 nerve firmly ligated with 6-0 silk suture material. The wound was then inspected for hemostasis and closed in two layers. Animals with thresholds greater than 4 g were considered unsuccessful preparations(Chaplan et al., (1994) Journal of Neuroscience Methods 53: 55-63).
Behavioral assessment: Behavioral signs of allodynia were documented as follows. Briefly, rats were transferred to a testing cage with a wire mesh bottom and allowed to acclimate for 10-15 minutes. […] Lifting of the paw was recorded as a positive response and the next lightest filament chosen for the next measurement. […]

normal rats = assay: 55° C. hot plate test (latency to paw lick), acute thermally induced pain; format: in vivo, rat; conditions: 10 mg/kg i.p.
Procedure: A cutoff of 20 seconds of thermal surface exposure was employed to prevent tissue damage. Drug administration: Normal rats were administered ZD7288, 10 mg/kg, or an equivalent volume of saline, i.p. at time 0. Behavioral assessments were performed at 45, 60 and 75 minutes after drug administration.

CFA-injected rats = assay: Tactile allodynia in the complete Freund's adjuvant (CFA) paw model of inflammatory pain; format: in vivo, rat
[2] = system: rat mild thermal injury model; assay: Spontaneous pain behaviors in the rat mild thermal injury (first-degree burn) model; conditions: for suppression of spontaneous pain behaviors: 30 and 60 min; for adverse behavioral effects: morphine 3 mg/kg or ZD7288 10 mg/kg i.p.
[3] = system: preclinical models of neuropathic pain; conditions: cited from earlier work
[4] = system: native Ih in normal rat L4 dorsal root ganglion neurons; assay: Whole cell patch clamp of native Ih in dissociated L4 DRG neurons of uninjured rats (lidocaine); format: cell-based; conditions: bath-applied at neutral pH
Procedure: Lidocaine was tested for its effect on Ih expressed in dissociated L4 dorsal root ganglion neurons from uninjured rats to determine whether this well known Na channel blocker could have other mechanisms of action.
DRG were extirpated, dissociated and cultured 3-4 days on poly-D-lysine coated coverslips as described in Example 10. Ih was measured using the whole cell configuration of the patch clamp technique according to the methods described in Example 10 with the exception that the pipette solution was the solution used in Example 3. Neurons were challenged with a family of hyperpolarizing voltage pulses (−60 mV to −150 mV in increments of 10 mV) from a holding potential of −50 mV. Ih was determined at the end of 600 msec duration test pulses. Lidocaine was bath-applied at neutral pH and the percent inhibition of control Ih was determined after lidocaine achieved steady state block. Plotted is the steady state current observed at −134 mV as a percent of control after incubation of lidocaine at the indicated concentrations. […] Lidocaine block was reversible. Data were obtained from 3 cells having control Ih densities of −1.5, −2.0 and −2.2 pA/pF.

[5] = system: ectopic firing in injured peripheral nerves; conditions: systemically administered; cited from earlier work

With [Cl-].[Cs+] [Cs^+, CsCl] the “effect on endogenous inward currents of oocytes” value (human HCN1; Cs+ 3 mM) was “no effect”, the “block of HCN1 currents” value (human HCN1; Ih evoked by stepping to −80 mV, n=3) was 94% and the “block of HCN1 currents” value (human HCN1; Ih evoked by stepping to −100 mV, n=3) was 92%. The “block of HCN1 currents” value (human HCN1; Ih evoked by stepping to −120 mV, n=3) was 90%, the “block of low threshold inward currents in HCN1-injected oocytes, reversibility” value (human HCN1; Cs+ 3 mM, n=3) was “reversibly blocked” and the “block of hyperpolarization-induced inward currents (Ih)” value (human HCN3; 3 mM CsCl) was “completely blocked”. The “reversibility of effect on HCN3 currents” value (human HCN3; Cs+ 3 mM) was “rapidly reversible” and the “block of Ih in large DRG neurons” value (Ih in large DRG neurons; extracellular Cs+ 3 mM) was “efficacious block”.
In the case of CC[N+](CC)(CC)CC(=O)Nc1c(C)cccc1C [QX-314], the “block of Ih” value (Ih) is given as “blocks Ih”.
For CCN(c1ccccc1)c1cc(=NC)n(C)c(C)n1.Cl [ZD7288], the “cells with no detectable Ih after previous bath exposure and wash” value (human HCN3; ZD7288 50 μM, subsequently washed, previously 6 of 6 cells expressed Ih) was 3 of 3, the “block of hyperpolarization-induced inward currents (Ih)” value (human HCN3; ZD7288 50 μM, n=3) was 98+/−2% and the “reversibility of effect on HCN3 currents” value (human HCN3; ZD7288 50 μM, washout period of at least 15 min) was “did not reverse”. The “effect on spontaneous firing of Aδ fiber” value ([1]; 100 micromolar) was “attenuation of firing”, the “time to complete suppression of ectopic firing, typical Aβ fiber” value ([1]; 100 micromolar) was 3 to 4 min and the “conduction blockade of evoked action potentials” value ([1]; after application of ZD7288) was “no conduction blockade”. The “suppression of spontaneous discharges of Aβ fibers” value ([1]; bath application 100 μM for 5 min) was “complete suppression; also recorded: completely suppressed”, the “efficacy of suppression of allodynic responses (% MPE)” value (SNL rats) was 75.7+/−15.4% and the “suppression of tactile allodynia” value (SNL rats; 1, 3, 10 mg/kg) was “suppressed allodynic responses in a dose-dependent manner; also recorded: blocked in a dose dependent manner; also recorded: suppressed the tactile allodynia”. For the same compound, the “behavioral adverse effects / motor function” value (SNL rats; up to 10 mg/kg) was “No untoward behavioral effects; also recorded: normal motor function; also recorded: without overt adverse effects on behavior”, the “effect on acute thermally-evoked pain” value (normal rats) was “minimal effect” and the “difference from saline in hot plate latency” value (normal rats; 45 or 60 min) was “No statistically significant difference”. The “difference from saline in hot plate latency” value (normal rats; 75 min, statistically significant, minor) was “approximately 15%”, the “suppression of CFA-induced tactile allodynia” value (CFA-injected rats; ZD7288 10 mg/kg i.p., 10 mg/kg) was “suppressed allodynia; also recorded: markedly suppressed” and the “block of Ih in large DRG neurons” value (Ih in large DRG neurons; ZD7288 50 μM) was “efficacious block”. The “suppression of spontaneous pain behaviors” value ([2]; ZD7288 10 mg/kg i.p., 10 mg/kg) was “near complete suppression; also recorded: suppressed spontaneous pain” and the adverse behavioral effects [2] was “No adverse behavioral effects”.
In the case of CCCCN1CCCCC1C(=O)Nc1c(C)cccc1C (centres unmarked) [bupivacaine], the anti-hyperalgesic activity [3] is given as “does not possess any anti-hyperalgesic activity”.
In the case of NCC1(CC(=O)O)CCCCC1 [gabapentin], the “suppression of CFA-induced tactile allodynia” value (CFA-injected rats; gabapentin 100 mg/kg i.p.) is reported as “not”.
For CC(C)Cc1ccc(C(C)C(=O)O)cc1 (centres unmarked) [ibuprofen], the “suppression of CFA-induced tactile allodynia” value (CFA-injected rats; ibuprofen 30 mg/kg i.p.) was “suppressed” and the “suppression of CFA-induced tactile allodynia” value (CFA-injected rats; ibuprofen 30 mg/kg i.p., listed as Ibuprofen) was “some efficacy”.
In the case of CCN(CC)CC(=O)Nc1c(C)cccc1C [lidocaine], the “reversibility of block of Ih” value [4] is given as “reversible” and the “effect on ectopic firing in injured peripheral nerves” value [5] is given as “stops the ectopic firing”.
In the case of CN1CC[C@]23c4c5ccc(O)c4O[C@H]2[C@@H](O)C=C[C@H]3[C@H]1C5 [morphine], the “suppression of CFA-induced tactile allodynia” value (CFA-injected rats; morphine 3 mg/kg i.p.) is reported as “suppressed”, the “suppression of spontaneous pain behaviors” value ([2]; morphine 3 mg/kg i.p.) is reported as “near complete suppression; also recorded: suppressed spontaneous pain” and the adverse behavioral effects [2] is reported as “No adverse behavioral effects”.

From patent publication US20030022813A1, “Treating pain by targeting hyperpolarization-activated, cyclic nucleotide-gated channels” (priority 2001, published 2003)
